{
  "source": "paper PMC8800111",
  "about": "(The Journal of Biological Chemistry, 2021)",
  "format_in_all_cases": "cell-based",
  "key": {"[1]": {"target": "proteins of U3A human fibrosarcoma cells (4462 proteins detected) (Homo sapiens, UniProt P13861)", "conditions": "protein PRKAR2A; soluble abundance after heat, U3A cells"}, "[2]": {"target": "proteins of U3A human fibrosarcoma cells (4462 proteins detected) (Homo sapiens, UniProt Q6YN16)", "conditions": "protein HSDL2; U3A cells"}, "[3]": {"target": "proteins of U3A human fibrosarcoma cells (4462 proteins detected) (Homo sapiens, UniProt P49841)", "conditions": "protein GSK3B; soluble abundance after heat, U3A cells"}, "[4]": {"target": "proteins of U3A human fibrosarcoma cells (4462 proteins detected) (Homo sapiens, UniProt P62873)", "sequence (P62873 whole entry)": "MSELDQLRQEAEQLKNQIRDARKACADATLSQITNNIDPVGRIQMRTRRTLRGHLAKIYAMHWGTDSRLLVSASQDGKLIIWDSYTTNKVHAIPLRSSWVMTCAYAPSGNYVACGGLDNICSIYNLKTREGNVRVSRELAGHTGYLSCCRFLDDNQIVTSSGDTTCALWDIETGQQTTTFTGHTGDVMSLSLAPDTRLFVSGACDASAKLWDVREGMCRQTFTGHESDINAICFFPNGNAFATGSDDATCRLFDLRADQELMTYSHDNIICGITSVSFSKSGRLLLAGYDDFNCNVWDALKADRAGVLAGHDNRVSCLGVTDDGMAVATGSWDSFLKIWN", "conditions": "protein GNB1; U3A cells"}, "[5]": {"target": "proteins of U3A human fibrosarcoma cells (4462 proteins detected) (Homo sapiens, UniProt P30050)", "conditions": "protein RPL12; soluble abundance after heat, U3A cells"}, "[6]": {"target": "proteins of U3A human fibrosarcoma cells (4462 proteins detected) (Homo sapiens, UniProt Q9UJ41)", "sequence (Q9UJ41 whole entry)": "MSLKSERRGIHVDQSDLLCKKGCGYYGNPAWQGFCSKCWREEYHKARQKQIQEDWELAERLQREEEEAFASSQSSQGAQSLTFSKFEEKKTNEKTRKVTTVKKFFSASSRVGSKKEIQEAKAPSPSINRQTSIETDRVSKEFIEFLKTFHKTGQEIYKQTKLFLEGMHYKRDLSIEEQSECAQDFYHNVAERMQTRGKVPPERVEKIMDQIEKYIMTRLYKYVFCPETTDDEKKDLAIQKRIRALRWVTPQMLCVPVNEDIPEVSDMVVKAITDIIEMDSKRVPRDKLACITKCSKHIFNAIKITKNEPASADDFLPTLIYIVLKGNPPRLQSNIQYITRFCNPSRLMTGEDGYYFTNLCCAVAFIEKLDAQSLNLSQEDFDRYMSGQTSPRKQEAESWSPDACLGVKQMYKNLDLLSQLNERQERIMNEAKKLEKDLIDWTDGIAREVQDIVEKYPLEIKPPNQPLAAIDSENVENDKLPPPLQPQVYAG", "conditions": "protein RABGEF1; U3A cells"}, "[7]": {"target": "proteins of U3A human fibrosarcoma cells (4462 proteins detected) (Homo sapiens, UniProt P31689)", "sequence (P31689 whole entry)": "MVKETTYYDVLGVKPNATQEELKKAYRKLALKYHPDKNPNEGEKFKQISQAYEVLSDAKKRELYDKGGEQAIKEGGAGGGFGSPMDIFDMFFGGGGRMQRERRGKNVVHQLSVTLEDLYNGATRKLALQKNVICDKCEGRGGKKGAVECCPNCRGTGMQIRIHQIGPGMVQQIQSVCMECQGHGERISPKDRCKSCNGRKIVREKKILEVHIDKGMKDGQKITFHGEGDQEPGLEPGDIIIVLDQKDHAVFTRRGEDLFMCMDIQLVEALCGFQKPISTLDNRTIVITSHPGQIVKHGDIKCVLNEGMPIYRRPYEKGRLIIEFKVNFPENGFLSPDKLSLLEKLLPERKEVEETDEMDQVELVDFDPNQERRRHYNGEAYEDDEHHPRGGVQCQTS", "conditions": "protein DNAJA1; U3A cells"}, "[8]": {"target": "proteins of U3A human fibrosarcoma cells (4462 proteins detected) (Homo sapiens, UniProt O43402)", "conditions": "protein EMC8; soluble abundance after heat, U3A cells"}, "[9]": {"target": "proteins of U3A human fibrosarcoma cells (4462 proteins detected) (Homo sapiens, UniProt O00231)", "conditions": "protein PSMD11; U3A cells"}, "[10]": {"target": "proteins of U3A human fibrosarcoma cells (4462 proteins detected) (Homo sapiens, UniProt Q9NWV8)", "sequence (Q9NWV8 whole entry)": "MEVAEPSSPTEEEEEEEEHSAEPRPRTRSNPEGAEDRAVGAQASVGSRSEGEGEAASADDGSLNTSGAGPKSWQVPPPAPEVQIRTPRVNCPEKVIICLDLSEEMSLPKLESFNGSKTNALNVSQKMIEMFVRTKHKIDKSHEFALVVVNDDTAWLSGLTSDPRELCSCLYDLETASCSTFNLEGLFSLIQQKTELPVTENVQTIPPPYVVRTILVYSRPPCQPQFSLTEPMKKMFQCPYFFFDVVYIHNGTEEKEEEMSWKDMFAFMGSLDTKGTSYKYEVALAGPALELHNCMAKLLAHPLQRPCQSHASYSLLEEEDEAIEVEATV", "conditions": "protein BABAM1; soluble abundance after heat, U3A cells"}, "[11]": {"target": "proteins of U3A human fibrosarcoma cells (4462 proteins detected) (Homo sapiens, UniProt Q08623)", "sequence (Q08623 whole entry)": "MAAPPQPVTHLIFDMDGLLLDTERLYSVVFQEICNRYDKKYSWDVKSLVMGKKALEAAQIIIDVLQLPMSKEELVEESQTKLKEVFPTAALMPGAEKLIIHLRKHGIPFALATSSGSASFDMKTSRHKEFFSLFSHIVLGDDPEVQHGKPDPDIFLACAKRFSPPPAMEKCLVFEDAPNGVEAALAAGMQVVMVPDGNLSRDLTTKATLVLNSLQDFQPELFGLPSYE", "conditions": "protein HDHD1, U3A cells"}, "[12]": {"target": "proteins of U3A human fibrosarcoma cells (4462 proteins detected) (Homo sapiens, UniProt P20700)", "conditions": "protein LMNB1; soluble abundance after heat, U3A cells"}, "[13]": {"target": "proteins of U3A human fibrosarcoma cells (4462 proteins detected) (Homo sapiens, UniProt Q96TA2)", "conditions": "protein YME1L1; U3A cells"}, "[14]": {"target": "proteins of U3A human fibrosarcoma cells (4462 proteins detected) (Homo sapiens, UniProt O14964)", "conditions": "protein HGS; U3A cells"}, "[15]": {"target": "proteins of U3A human fibrosarcoma cells (4462 proteins detected) (Homo sapiens, UniProt Q9NS91)", "conditions": "protein RAD18; U3A cells"}, "[16]": {"target": "proteins of U3A human fibrosarcoma cells (4462 proteins detected) (Homo sapiens, UniProt Q8N465)", "sequence (Q8N465 14-521)": "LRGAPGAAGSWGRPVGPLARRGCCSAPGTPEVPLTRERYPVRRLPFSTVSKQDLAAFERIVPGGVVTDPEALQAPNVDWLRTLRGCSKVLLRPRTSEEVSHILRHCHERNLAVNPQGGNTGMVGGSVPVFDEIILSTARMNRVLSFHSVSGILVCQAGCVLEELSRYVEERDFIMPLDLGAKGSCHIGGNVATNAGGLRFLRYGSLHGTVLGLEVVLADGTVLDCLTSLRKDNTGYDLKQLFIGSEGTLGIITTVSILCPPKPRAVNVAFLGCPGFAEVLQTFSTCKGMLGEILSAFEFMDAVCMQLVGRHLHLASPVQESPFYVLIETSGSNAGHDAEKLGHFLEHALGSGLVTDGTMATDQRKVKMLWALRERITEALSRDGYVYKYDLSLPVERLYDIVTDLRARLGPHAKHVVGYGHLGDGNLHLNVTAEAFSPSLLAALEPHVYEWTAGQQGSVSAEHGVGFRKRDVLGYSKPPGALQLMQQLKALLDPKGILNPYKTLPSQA", "conditions": "protein D2HGDH; soluble abundance after heat, U3A cells"}, "[17]": {"target": "proteins of U3A human fibrosarcoma cells (4462 proteins detected) (Homo sapiens, UniProt Q9NY33)", "conditions": "protein DPP3, U3A cells"}, "[18]": {"target": "proteins of U3A human fibrosarcoma cells (4462 proteins detected) (Homo sapiens, UniProt P14854)", "sequence (P14854 whole entry)": "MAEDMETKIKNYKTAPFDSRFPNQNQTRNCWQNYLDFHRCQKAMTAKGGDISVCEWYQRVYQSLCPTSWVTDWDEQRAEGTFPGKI", "conditions": "protein COX6B1, U3A cells"}, "[19]": {"target": "proteins of U3A human fibrosarcoma cells (4462 proteins detected) (Homo sapiens, UniProt Q9UHN1)", "conditions": "protein POLG2; soluble abundance after heat, U3A cells"}, "[20]": {"target": "proteins of U3A human fibrosarcoma cells (4462 proteins detected) (Homo sapiens, UniProt Q8TEP8)", "sequence (Q8TEP8 whole entry)": "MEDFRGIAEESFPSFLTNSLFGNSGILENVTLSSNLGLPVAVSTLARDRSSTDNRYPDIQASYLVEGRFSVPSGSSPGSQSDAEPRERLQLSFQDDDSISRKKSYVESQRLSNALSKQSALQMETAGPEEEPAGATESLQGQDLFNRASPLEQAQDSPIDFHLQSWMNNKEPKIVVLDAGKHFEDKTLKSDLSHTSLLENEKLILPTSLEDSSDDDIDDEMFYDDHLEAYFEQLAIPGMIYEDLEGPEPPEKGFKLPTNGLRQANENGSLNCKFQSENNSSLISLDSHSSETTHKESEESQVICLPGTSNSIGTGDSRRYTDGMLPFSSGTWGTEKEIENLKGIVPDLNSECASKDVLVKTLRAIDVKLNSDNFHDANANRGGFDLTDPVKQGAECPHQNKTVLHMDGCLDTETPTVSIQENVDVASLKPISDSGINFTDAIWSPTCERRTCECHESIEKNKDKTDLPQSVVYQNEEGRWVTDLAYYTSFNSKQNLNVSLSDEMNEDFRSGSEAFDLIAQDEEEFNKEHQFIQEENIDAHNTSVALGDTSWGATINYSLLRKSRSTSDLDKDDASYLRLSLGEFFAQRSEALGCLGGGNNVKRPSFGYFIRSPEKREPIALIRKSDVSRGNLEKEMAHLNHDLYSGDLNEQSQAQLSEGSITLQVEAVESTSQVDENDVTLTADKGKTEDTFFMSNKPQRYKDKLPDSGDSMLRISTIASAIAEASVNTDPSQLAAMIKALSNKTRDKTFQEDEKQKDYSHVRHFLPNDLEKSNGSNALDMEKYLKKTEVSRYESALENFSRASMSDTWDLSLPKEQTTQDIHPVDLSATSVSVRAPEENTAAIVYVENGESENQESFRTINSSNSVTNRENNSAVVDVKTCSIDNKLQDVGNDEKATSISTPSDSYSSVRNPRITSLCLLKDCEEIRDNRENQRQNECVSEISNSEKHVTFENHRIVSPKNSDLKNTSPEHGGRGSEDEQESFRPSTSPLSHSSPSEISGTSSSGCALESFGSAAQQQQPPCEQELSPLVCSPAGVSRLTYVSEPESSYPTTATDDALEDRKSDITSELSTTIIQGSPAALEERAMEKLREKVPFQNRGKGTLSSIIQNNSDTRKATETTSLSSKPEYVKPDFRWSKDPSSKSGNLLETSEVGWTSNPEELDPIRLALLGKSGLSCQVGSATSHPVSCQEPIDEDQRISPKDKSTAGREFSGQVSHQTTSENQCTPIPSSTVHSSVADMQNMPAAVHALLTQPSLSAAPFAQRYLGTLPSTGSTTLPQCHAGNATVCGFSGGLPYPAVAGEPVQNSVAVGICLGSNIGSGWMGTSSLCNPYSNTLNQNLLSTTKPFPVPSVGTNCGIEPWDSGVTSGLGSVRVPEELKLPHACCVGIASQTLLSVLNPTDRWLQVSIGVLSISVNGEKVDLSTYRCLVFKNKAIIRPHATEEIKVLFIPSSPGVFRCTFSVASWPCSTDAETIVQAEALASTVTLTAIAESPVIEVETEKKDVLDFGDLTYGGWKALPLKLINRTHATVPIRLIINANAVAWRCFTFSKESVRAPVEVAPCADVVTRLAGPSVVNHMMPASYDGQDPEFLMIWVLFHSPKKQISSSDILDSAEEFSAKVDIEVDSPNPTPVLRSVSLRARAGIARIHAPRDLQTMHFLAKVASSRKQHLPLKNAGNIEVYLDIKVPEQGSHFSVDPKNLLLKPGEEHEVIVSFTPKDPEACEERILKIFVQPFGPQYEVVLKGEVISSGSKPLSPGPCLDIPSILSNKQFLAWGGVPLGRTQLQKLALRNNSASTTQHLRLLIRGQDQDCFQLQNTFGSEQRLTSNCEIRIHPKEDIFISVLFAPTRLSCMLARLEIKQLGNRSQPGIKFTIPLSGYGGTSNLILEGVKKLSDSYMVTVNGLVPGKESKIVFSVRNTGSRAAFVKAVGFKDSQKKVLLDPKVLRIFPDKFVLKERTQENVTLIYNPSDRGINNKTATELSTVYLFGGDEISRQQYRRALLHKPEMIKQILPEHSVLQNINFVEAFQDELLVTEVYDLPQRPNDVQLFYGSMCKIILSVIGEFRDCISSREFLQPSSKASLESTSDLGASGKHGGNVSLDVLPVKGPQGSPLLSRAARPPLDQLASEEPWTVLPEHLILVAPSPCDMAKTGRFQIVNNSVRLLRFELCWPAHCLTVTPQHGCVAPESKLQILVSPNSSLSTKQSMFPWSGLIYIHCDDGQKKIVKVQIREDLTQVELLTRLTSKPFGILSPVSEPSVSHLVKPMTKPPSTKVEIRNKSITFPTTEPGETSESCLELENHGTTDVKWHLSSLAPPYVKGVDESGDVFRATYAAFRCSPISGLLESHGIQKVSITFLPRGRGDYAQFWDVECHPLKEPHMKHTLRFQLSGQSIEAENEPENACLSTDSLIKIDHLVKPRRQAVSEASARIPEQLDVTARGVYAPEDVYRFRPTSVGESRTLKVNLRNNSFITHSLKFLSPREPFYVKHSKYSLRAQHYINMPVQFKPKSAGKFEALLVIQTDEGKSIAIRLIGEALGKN", "conditions": "protein CEP192; U3A, 10 μM, 2 h"}, "[21]": {"target": "proteins of U3A human fibrosarcoma cells (4462 proteins detected) (Homo sapiens, UniProt P13473)", "conditions": "protein LAMP2; soluble abundance after heat, U3A cells"}, "[22]": {"target": "proteins of U3A human fibrosarcoma cells (4462 proteins detected) (Homo sapiens, UniProt O95104)", "conditions": "protein SCAF4; U3A cells"}, "[23]": {"target": "proteins of U3A human fibrosarcoma cells (4462 proteins detected) (Homo sapiens, UniProt P30154)", "conditions": "protein PPP2R1B; soluble abundance after heat, U3A cells"}, "[24]": {"target": "proteins of U3A human fibrosarcoma cells (4462 proteins detected) (Homo sapiens, UniProt Q86WQ0)", "conditions": "protein NR2C2AP, U3A cells"}, "[25]": {"target": "proteins of U3A human fibrosarcoma cells (4462 proteins detected) (Homo sapiens, UniProt Q99459)", "conditions": "protein CDC5L; U3A cells"}, "[26]": {"target": "proteins of U3A human fibrosarcoma cells (4462 proteins detected) (Homo sapiens, UniProt Q9Y6G5)", "conditions": "protein COMMD10; U3A cells"}, "[27]": {"target": "proteins of U3A human fibrosarcoma cells (4462 proteins detected) (Homo sapiens, UniProt Q9UL15)", "conditions": "protein BAG5; U3A cells"}, "[28]": {"target": "proteins of U3A human fibrosarcoma cells (4462 proteins detected) (Homo sapiens, UniProt Q9H4A3)", "conditions": "protein WNK1, U3A cells"}, "[29]": {"target": "proteins of U3A human fibrosarcoma cells (4462 proteins detected) (Homo sapiens, UniProt Q53FT3)", "conditions": "protein C11orf73; U3A, 10 μM, 2 h"}, "[30]": {"target": "proteins of U3A human fibrosarcoma cells (4462 proteins detected) (Homo sapiens, UniProt O60563)", "conditions": "protein CCNT1; U3A cells"}},
  "data": [
    {"compound": "CCc1nc(N)nc(N)c1-c1ccc(Cl)cc1", "note": "[pyrimethamine]", "values": [
      {"measurement": "Log2 (PYR/DMSO)", "setting": "[1]", "value": 0.14},
      {"measurement": "Log2 (PYR/DMSO)", "setting": "[2]", "value": 0.22},
      {"measurement": "Log2 (PYR/DMSO)", "setting": "[3]", "value": 0.15},
      {"measurement": "Log2 (PYR/DMSO)", "setting": "[4]", "value": 0.22},
      {"measurement": "Log2 (PYR/DMSO)", "setting": "[5]", "value": 0.14},
      {"measurement": "Log2 (PYR/DMSO)", "setting": "[6]", "value": 0.20},
      {"measurement": "Log2 (PYR/DMSO)", "setting": "[7]", "value": 0.17},
      {"measurement": "Log2 (PYR/DMSO)", "setting": "[8]", "value": 0.15},
      {"measurement": "Log2 (PYR/DMSO)", "setting": "[9]", "value": 0.17},
      {"measurement": "Log2 (PYR/DMSO)", "setting": "[10]", "value": 0.15},
      {"measurement": "Log2 (PYR/DMSO)", "setting": "[11]", "value": -0.04},
      {"measurement": "Log2 (PYR/DMSO)", "setting": "[12]", "value": 0.15},
      {"measurement": "Log2 (PYR/DMSO)", "setting": "[13]", "value": 0.16},
      {"measurement": "Log2 (PYR/DMSO)", "setting": "[14]", "value": 0.16},
      {"measurement": "Log2 (PYR/DMSO)", "setting": "[15]", "value": 0.17},
      {"measurement": "Log2 (PYR/DMSO)", "setting": "[16]", "value": 0.15},
      {"measurement": "Log2 (PYR/DMSO)", "setting": "[17]", "value": -0.04},
      {"measurement": "Log2 (PYR/DMSO)", "setting": "[18]", "value": -0.04},
      {"measurement": "Log2 (PYR/DMSO)", "setting": "[19]", "value": 0.15},
      {"measurement": "Log2 (PYR/DMSO), CEP192", "setting": "[20]", "value": -0.22},
      {"measurement": "Log2 (PYR/DMSO)", "setting": "[21]", "value": 0.14},
      {"measurement": "Log2 (PYR/DMSO)", "setting": "[22]", "value": 0.19},
      {"measurement": "Log2 (PYR/DMSO)", "setting": "[23]", "value": 0.15},
      {"measurement": "Log2 (PYR/DMSO)", "setting": "[24]", "value": -0.03},
      {"measurement": "Log2 (PYR/DMSO)", "setting": "[25]", "value": 0.18},
      {"measurement": "Log2 (PYR/DMSO)", "setting": "[26]", "value": 0.22},
      {"measurement": "Log2 (PYR/DMSO)", "setting": "[27]", "value": 0.16},
      {"measurement": "Log2 (PYR/DMSO)", "setting": "[28]", "value": -0.04},
      {"measurement": "Log2 (PYR/DMSO), C11orf73", "setting": "[29]", "value": 0.28},
      {"measurement": "Log2 (PYR/DMSO)", "setting": "[30]", "value": 0.18}
    ]}
  ]
}
